{"source": "patent US20040043920A1", "about": "“Compound for chelating a metal, radiopharmaceutical, manufacturing process therefor, and diagnostic kit” (priority 2000, published 2004)", "key": {"[1]": {"experiment": "Bioavailability (biodistribution) of radiolabelled Lys-Lys bis-dithiocarbamate in rats", "type": "in vivo", "settings": "rat", "experimental": "(§1) The molecule was radiolabelled as described in Example (29). The radiolabelled compound is then isolated by HPLC, evaporated and taken up in 0.9% saline medium. The bioavailability in rats gives the following results (see Table 1):\ntime 30 minutes and 60 minutes: 3 animals per point,\ntime 3 hours: 2 animals per point,\ntime 24 hours: 1 animal per point.\nThe results are expressed as a percentage of dose injected per organ."}, "[2]": {"experiment": "HPLC analysis of rats' urine for unchanged complex", "type": "in vivo, rat", "settings": "rats' urine collected 1 hour 30 minutes after injection", "experimental": "as §1\nThe rats' urine was collected 1 hour 30 minutes after injection and analysed by HPLC. The result of this analysis is 87% of unchanged complex."}, "[3]": {"experiment": "Brain distribution in the rat: crossing of the blood-brain barrier and striatum/cerebellum ratio", "type": "in vivo", "experimental": "The model chosen is the rat. Depending on the compounds, we performed one or two sacrifice times (30 minutes or 1 hour).\nAt the times chosen, the brains were removed and the areas of interest were isolated and counted.\nthe crossing of the blood-brain barrier by the compound under consideration,\na striatum/cerebellum ratio."}}, "data": [{"compound": "NC(CCCCNC(=S)S)C(=O)NC(CCCCNC(=S)S)C(=O)O", "note": "(centres unmarked) [Lys-Lys Bis-Dithiocarbamate]", "values": [{"measurement": "percentage of dose injected per organ, adrenals", "setting": "[1]; 30 min", "value": "0.02 percentage of dose injected per organ"}, {"measurement": "percentage of dose injected per organ, adrenals", "setting": "[1]; 1 h", "value": "0.01 percentage of dose injected per organ"}, {"measurement": "percentage of dose injected per organ, adrenals", "setting": "[1]; 3 h", "value": "0.01 percentage of dose injected per organ"}, {"measurement": "percentage of dose injected per organ, adrenals", "setting": "[1]; 24 h", "value": "0.00 percentage of dose injected per organ"}, {"measurement": "percentage of dose injected per organ, bladder", "setting": "[1]; 30 min", "value": "0.47 percentage of dose injected per organ"}, {"measurement": "percentage of dose injected per organ, bladder", "setting": "[1]; 1 h", "value": "0.32 percentage of dose injected per organ"}, {"measurement": "percentage of dose injected per organ, bladder", "setting": "[1]; 3 h", "value": "0.05 percentage of dose injected per organ"}, {"measurement": "percentage of dose injected per organ, bladder", "setting": "[1]; 24 h", "value": "0.01 percentage of dose injected per organ"}, {"measurement": "percentage of dose injected per organ, blood", "setting": "[1]; 30 min", "value": "0.67 percentage of dose injected per organ"}, {"measurement": "percentage of dose injected per organ, blood", "setting": "[1]; 1 h", "value": "0.34 percentage of dose injected per organ"}, {"measurement": "percentage of dose injected per organ, blood", "setting": "[1]; 3 h", "value": "0.20 percentage of dose injected per organ"}, {"measurement": "percentage of dose injected per organ, blood", "setting": "[1]; 24 h", "value": "0.11 percentage of dose injected per organ"}, {"measurement": "percentage of dose injected per organ, brain", "setting": "[1]; 30 min", "value": "0.03 percentage of dose injected per organ"}, {"measurement": "percentage of dose injected per organ, brain", "setting": "[1]; 1 h", "value": "0.01 percentage of dose injected per organ"}, {"measurement": "percentage of dose injected per organ, brain", "setting": "[1]; 3 h", "value": "0.01 percentage of dose injected per organ"}, {"measurement": "percentage of dose injected per organ, brain", "setting": "[1]; 24 h", "value": "0.01 percentage of dose injected per organ"}, {"measurement": "percentage of dose injected per organ, caecum", "setting": "[1]; 30 min", "value": "0.31 percentage of dose injected per organ"}, {"measurement": "percentage of dose injected per organ, caecum", "setting": "[1]; 1 h", "value": "0.18 percentage of dose injected per organ"}, {"measurement": "percentage of dose injected per organ, caecum", "setting": "[1]; 3 h", "value": "0.11 percentage of dose injected per organ"}, {"measurement": "percentage of dose injected per organ, caecum", "setting": "[1]; 24 h", "value": "0.66 percentage of dose injected per organ"}, {"measurement": "percentage of dose injected per organ, colon", "setting": "[1]; 30 min", "value": "0.46 percentage of dose injected per organ"}, {"measurement": "percentage of dose injected per organ, colon", "setting": "[1]; 1 h", "value": "0.23 percentage of dose injected per organ"}, {"measurement": "percentage of dose injected per organ, colon", "setting": "[1]; 3 h", "value": "0.19 percentage of dose injected per organ"}, {"measurement": "percentage of dose injected per organ, colon", "setting": "[1]; 24 h", "value": "0.87 percentage of dose injected per organ"}, {"measurement": "percentage of dose injected per organ, heart", "setting": "[1]; 30 min", "value": "0.21 percentage of dose injected per organ"}, {"measurement": "percentage of dose injected per organ, heart", "setting": "[1]; 1 h", "value": "0.10 percentage of dose injected per organ"}, {"measurement": "percentage of dose injected per organ, heart", "setting": "[1]; 3 h", "value": "0.06 percentage of dose injected per organ"}, {"measurement": "percentage of dose injected per organ, heart", "setting": "[1]; 24 h", "value": "0.03 percentage of dose injected per organ"}, {"measurement": "percentage of dose injected per organ, intestine", "setting": "[1]; 30 min", "value": "20.55 percentage of dose injected per organ"}, {"measurement": "percentage of dose injected per organ, intestine", "setting": "[1]; 1 h", "value": "32.92 percentage of dose injected per organ"}, {"measurement": "percentage of dose injected per organ, intestine", "setting": "[1]; 3 h", "value": "51.4 percentage of dose injected per organ"}, {"measurement": "percentage of dose injected per organ, intestine", "setting": "[1]; 24 h", "value": "0.49 percentage of dose injected per organ"}, {"measurement": "percentage of dose injected per organ, kidneys", "setting": "[1]; 30 min", "value": "4.55 percentage of dose injected per organ"}, {"measurement": "percentage of dose injected per organ, kidneys", "setting": "[1]; 1 h", "value": "4.18 percentage of dose injected per organ"}, {"measurement": "percentage of dose injected per organ, kidneys", "setting": "[1]; 3 h", "value": "3.87 percentage of dose injected per organ"}, {"measurement": "percentage of dose injected per organ, kidneys", "setting": "[1]; 24 h", "value": "2.65 percentage of dose injected per organ"}, {"measurement": "percentage of dose injected per organ, liver", "setting": "[1]; 30 min", "value": "14.38 percentage of dose injected per organ"}, {"measurement": "percentage of dose injected per organ, liver", "setting": "[1]; 1 h", "value": "9.08 percentage of dose injected per organ"}, {"measurement": "percentage of dose injected per organ, liver", "setting": "[1]; 3 h", "value": "3.84 percentage of dose injected per organ"}, {"measurement": "percentage of dose injected per organ, liver", "setting": "[1]; 24 h", "value": "1.33 percentage of dose injected per organ"}, {"measurement": "percentage of dose injected per organ, lungs", "setting": "[1]; 30 min", "value": "0.43 percentage of dose injected per organ"}, {"measurement": "percentage of dose injected per organ, lungs", "setting": "[1]; 1 h", "value": "0.28 percentage of dose injected per organ"}, {"measurement": "percentage of dose injected per organ, lungs", "setting": "[1]; 3 h", "value": "0.15 percentage of dose injected per organ"}, {"measurement": "percentage of dose injected per organ, lungs", "setting": "[1]; 24 h", "value": "0.08 percentage of dose injected per organ"}, {"measurement": "percentage of dose injected per organ, spleen", "setting": "[1]; 30 min", "value": "0.13 percentage of dose injected per organ"}, {"measurement": "percentage of dose injected per organ, spleen", "setting": "[1]; 1 h", "value": "0.09 percentage of dose injected per organ"}, {"measurement": "percentage of dose injected per organ, spleen", "setting": "[1]; 3 h", "value": "0.05 percentage of dose injected per organ"}, {"measurement": "percentage of dose injected per organ, spleen", "setting": "[1]; 24 h", "value": "0.04 percentage of dose injected per organ"}, {"measurement": "percentage of dose injected per organ, stomach", "setting": "[1]; 30 min", "value": "8.24 percentage of dose injected per organ"}, {"measurement": "percentage of dose injected per organ, stomach", "setting": "[1]; 1 h", "value": "3.36 percentage of dose injected per organ"}, {"measurement": "percentage of dose injected per organ, stomach", "setting": "[1]; 3 h", "value": "2.64 percentage of dose injected per organ"}, {"measurement": "percentage of dose injected per organ, stomach", "setting": "[1]; 24 h", "value": "0.08 percentage of dose injected per organ"}, {"measurement": "percentage of dose injected per organ, urine", "setting": "[1]; 30 min", "value": "14.39 percentage of dose injected per organ"}, {"measurement": "percentage of dose injected per organ, urine", "setting": "[1]; 1 h", "value": "14.70 percentage of dose injected per organ"}, {"measurement": "percentage of dose injected per organ, urine", "setting": "[1]; 3 h", "value": "0.44 percentage of dose injected per organ"}, {"measurement": "percentage of dose injected per organ, urine", "setting": "[1]; 24 h", "value": "0.05 percentage of dose injected per organ"}, {"measurement": "unchanged complex in urine", "setting": "[2]", "value": 87, "unit": "%"}]}, {"compound": "Cc1ccc(C2CC3CCC(C2COC(=O)C2CCCCNC(=S)[S][Tc](#[N])[S]C(=S)NCCCCC(=O)N2)N3C)cc1", "note": "(centres unmarked) [Compound 52]", "values": [{"measurement": "Biodistribution: cerebellum", "setting": "[3]; 30′", "value": "30′: cerebellum: 0.114%"}, {"measurement": "Biodistribution: crossing of blood-brain barrier", "setting": "[3]; 30′", "value": "barrier: 0.358%"}, {"measurement": "Biodistribution: striatum", "setting": "[3]; 30′", "value": "striatum: 0.133%"}, {"measurement": "S/C (striatum/cerebellum ratio)", "setting": "[3]; 30′", "value": 1.17}, {"measurement": "Biodistribution: cerebellum", "setting": "[3]; 1 h", "value": "1 h: cerebellum: 0.065%"}, {"measurement": "Biodistribution: crossing of blood-brain barrier", "setting": "[3]; 1 h", "value": "barrier: 0.182%"}, {"measurement": "Biodistribution: striatum", "setting": "[3]; 1 h", "value": "striatum: 0.064%"}, {"measurement": "S/C (striatum/cerebellum ratio)", "setting": "[3]; 1 h", "value": 0.98}]}]}
